Laboratory results taken from patent US12528821B2, “pH-dependent composition matters useful for study and diagnosis of alzheimer's disease” (Purdue Research Foundation, priority 2019, dated 2026).

Legend:
[1] = Atomic Force Microscopy analysis of aggregation; assay type: physicochemical; conditions: compared with non-conjugated Aβ1-42
Description: AFM sample preparation: The manufacturer's protocol was followed for sample preparation, image acquiring and analysis.
1 mM Aβ solution was prepared by adding HFIP directly to the vial (0.5 mg Aβ or hAβ^pH or recombinant Aβ(M1-42) in 93.35 μL HFIP). The peptide should be completely dissolved. The solution was incubated at room temperature (RT) for at least 30 min. HFIP was allowed to evaporate in the open tubes overnight in the fume hood or using Argon/Nitrogen gas and then dry down under high vacuum for 1 h without heating to remove any remaining traces of HFIP and moisture. The resulting peptide thin clear film formed at the bottom of the tubes. The tubes containing dried peptides were stored at −20° C. until further use.
Prior to use, tube containing peptide film was allowed to come to RT. Then, 5 mM Aβ DMSO stock was prepared by adding 20 μL fresh dry DMSO to 0.45 mg. Pipette thoroughly, scraping down the sides of the tube near the bottom to ensure complete resuspension of peptide film. Vortex well (˜30 sec) and pulse in a microcentrifuge to collect solution at the bottom of the tube. Sonicate 5 mM Aβ DMSO solution for 10 min. Use this preparation as the starting material for unaggregated Aβ and oligomeric Aβ. For oligomer formation, samples were incubated at 4° C. for 24 hr.
Sample preparation was done with proper sterile technique with sterile media and MilliQ-water. […]

[2] = test system: N9 microglial cells; assay: Phagocytosis assay with live cells (IncuCyte live-cell imaging); assay type: cell-based, mouse
Description: (§1) To visualize the phagocytosis of hAβ^pH in live microglial cells, immortalized human microglial clone 3 (HMC3) cells and mouse BV2 and N9 microglial cells were treated with 0.1-5.0 μM doses of hAβ^pH and live-cell images were acquired every 30 minutes for 24 hours on the IncuCyte™ ZOOM Live Content Imaging system (FIGS. 3A-3B). The green channel on the IncuCyte™ ZOOM system allows for excitation and emission wavelengths of 460/524 nm and thus the hAβ^pH reporter was optimal for use on the instrument.
(§2) Cells were seeded at 5000 cells per well (200 μL per well) in a 96-well flat bottom plate (Falcon) for approximately 16 hours (overnight). The lyophilized hAβ^pH conjugate was dissolved in the culture medium for each cell type and filtered using 0.22 μm syringe filter. The adherent cells (BV2, N9, HMC3) were treated with a final concentration of hAβ^pH at 0, 0.1, 0.5, 1.0, 2.0, and 5.0 μM by replacing one-half of the culture medium (100 μL) with 2× concentration. Two technical replicates were used for each treatment concentration. The plates were immediately placed in the IncuCyte® S3 Live-Cell Analysis System (Essen BioScience) and four images per well were captured at 30-minute time intervals for 24 hours. The fluorescence intensity, cell confluence, and the integrated fluorescence intensity data was obtained and analyzed using the GraphPad Prism® software. The total hAβ^pH phagocytosis per concentration was calculated as:
[formula] wherein, Total Integrated Intensity is defined as the total sum of hAβ^pH's fluorescent intensity in the image and Relative Total Integrated Intensity is defined as Total Integrated Intensity (t)—Total Integrated Intensity (t=0) for each concentration. Flow Cytometry Analysis of BV-2 Microglia Phagocytosis

[3] = pH-sensitivity: fluorescence intensity at various pH conditions; assay type: physicochemical
Description: The cell culture medium was treated with dilute HCl and NaOH solutions to obtain different solutions with pH of 1.0 to 9.0 for the assay. […] Different dilutions for each pH condition was prepared at concentrations of 0.5, 1.0, 2.0, and 5.0 μM in a 96-well plate.

[4] = test system: HMC3, BV2, and N9 microglial cells; assay: Confocal imaging of actin filaments and nuclei in paraformaldehyde-fixed phagocytic microglial cells; assay type: cell-based, human, mouse; conditions: 5.0 μM for 2 hours, fixed with 4% paraformaldehyde
Description: Fixation of cells and using target protein markers along with hAβ^pH can inform us about the molecular mechanisms involved in microglial phagocytosis with confocal microscopy. To confirm that the hAβ^pH reporter can maintain its fluorescence in fixed cells, HMC3, BV2, and N9 microglial cells were fixed with common cell staining reagents. The cells were treated with 5.0 μM of hAβ^pH for 2 hours and fixed with 4% paraformaldehyde followed by the addition of the phalloidin dye to visualize cellular integrity via the staining of the F-actin filaments (FIG. 5).
For labeling the cells with Phalloidin and DAPI, 20,000 cells/250 μL were plated in 14 mm microwells of the 35 mm glass bottom dishes (MatTek #P35G-1.5-14-C) and kept overnight. The cells were treated with 5.0 μM hAβ^pH for 2 hours on the next day. Then the medium was aspirated, and cells were fixed with 4% paraformaldehyde for 20 mins, and then gently washed once with PBS. Phalloidin-iFluor 555 reagent was diluted at a concentration of 1 μL/mL in PBS and added to the fixed cells for 10 minutes for staining the actin filaments. To label the nuclei, DAPI was diluted at a concentration of 1 μL/mL. […] Fluorescence images of phagocytic microglial cells were captured using 40× and 60× objectives on the Nikon AR-1 MP confocal laser microscope. […]

[5] = test system: microglia and astrocytes in rat hippocampal tissue sections; assay: Phagocytosis assay in rat hippocampal tissue slices (in situ); conditions: IBA1+ and GFAP+ staining
[6] = test system: retinal IBA1+ microglia and GFAP+ astrocytes; assay: Subretinal injection, in vivo uptake by retinal microglia and astrocytes; conditions: rat
[7] = test system: primary mouse microglia; assay: Phagocytic uptake by primary microglia ex vivo (confocal, flow cytometry); assay type: cell-based
[8] = test system: BV2 microglial cells; assay: Flow cytometry analysis of BV-2 microglia phagocytosis; assay type: cell-based, mouse; conditions: 0.5 and 1.0 μM for 1 hour
Description: BV2 microglial cells were seeded at a density of 250 k cells/well in a 6-well plate for around 14 hr overnight. […] After 2 hours, the plate was brought to the hood, placed on ice to stop phagocytosis, and cell culture medium containing hAβ^pH was aspirated. The cells were washed once with cold PBS. Next, the cells were treated with ice cold PBS with 2 mM EDTA for 2 mins on ice to initiate detachment of the cells from the wells. The cells were fully detached from the wells with very gentle pipetting and transferred into falcon tubes. The cells were centrifuged once at 1400 RPM for 3 mins. The PBS/EDTA supernatant was aspirated out and the cell pellets were re-suspended in FACS buffer (PBS, 25 mM HEPES, 2 mM EDTA, and 2% FBS). Five minutes before analysis of each sample tube, Propidium Iodide (PI) was added to the sample (40 ng/1 mL cell suspension) for staining of live/dead cells. […] The filed were then analyzed on FlowJo V10 software. Gating strategy is indicated in FIG. 4 on the main manuscript.

[9] = test system: primary immunopanned rat astrocytes; assay: Uptake by primary immunopanned astrocytes in serum-free conditions; assay type: cell-based; conditions: fixed, GFAP stained
[10] = test system: BV2 microglial cells; assay: Phagocytosis assay with live cells (IncuCyte live-cell imaging); assay type: cell-based, mouse
Description: Cells were seeded at 5000 cells per well (200 μL per well) in a 96-well flat bottom plate (Falcon) for approximately 16 hours (overnight). […] Two technical replicates were used for each treatment concentration. The plates were immediately placed in the IncuCyte® S3 Live-Cell Analysis System (Essen BioScience) and four images per well were captured at 30-minute time intervals for 24 hours. The fluorescence intensity, cell confluence, and the integrated fluorescence intensity data was obtained and analyzed using the GraphPad Prism® software.
Flow Cytometry Analysis of BV-2 Microglia Phagocytosis

[11] = test system: HMC3 cells; assay: as above; assay type: cell-based, human
Description: as §1
as §2, with “The plates were immediately placed in the IncuCyte® S3 Live-Cell Analysis System (Essen BioScience) and four images per well were captured at 30-minute time intervals for 24 hours.” left out, “as: […]” for “as:”

[12] = test system: HMC3, N9, and BV2 cells; assay: Confocal imaging of intracellular acidic organelles (LysoTracker) in fixed phagocytic microglial cells; assay type: cell-based, human, mouse; conditions: 5.0 μM, 2-hour time point
Text: To visualize the localization of the hAβ^pH within the microglial cell cytoplasm, the acidic intracellular compartments were labeled with LysoTracker™ DND-99 that stains the lysosomal organelles of the cells. […] It has been recently shown that microglia in vitro recognize and phagocytose Aβ peptides through scavenger receptors,^8 Toll-Like Receptor 2 (TLR2),^17 Cluster of Differentiation 14 (CD14),^18 and Triggering Receptors Expressed on Myeloid Cells 2 (TREM2).^19 Thus, our hAβ^pH reporter serves as a valuable chemical tool in delineating the role of several receptor proteins involved in the Aβ uptake of live and fixed microglial cells using cell staining reagents and by using specific antibodies such as anti-CD14, anti-TREM2, etc. Additionally, the role of inflammation, including the effects of inflammatory cytokines, such as IL-la and TNF-α, on Aβ clearance is not resolved. Thus, our hAβ^pH will be a valuable for studying hAβ^pH phagocytosis under the influence of inflammatory cytokines or small molecule inhibitors.
LysoTracker® Red DND-99 was used for labeling the intracellular organelles of the cells to observe localization of hAβ^pH sensors inside the cells after phagocytosis. […] Fluorescence images of phagocytic microglial cells were captured using 40× and 60× objectives on the Nikon AR-1 MP confocal laser microscope. […]

[13] = test system: cortical IBA1+ microglia and GFAP+ astrocytes; assay: Stereotaxic microinjection in the somatosensory cortex, staining of fixed tissue sections; assay type: in vivo, mouse
[14] = test system: microglia and astrocytes in the cerebral cortex; assay: In vivo two-photon imaging of the barrel cortex through a cranial window after topical application; design: species or system mouse
[15] = P7 mouse, periventricular white matter, 72 h

hAβ^pH: pH-dependent fluorescent conjugate of human Aβ1-42 peptide linked to amine-reactive Protonex Green 500, SE (PTXG) fluorophore
ability to aggregate (AFM) [1]: aggregate similar to the non-conjugated Aβ
intracellular fluorescence beyond 18 hours ([2]; 5.0 μM): began to decrease
time of peak intracellular green fluorescence ([2]; 5.0 μM): 12 to 18 h
intracellular fluorescence (phagocytosis) over time ([2]; 1.0 and 2.0 μM doses): gradual increase in intracellular fluorescence
fluorescence intensity at the physiological pH of 7.4 ([3]; pH 7.4): did not show an increased fluorescence intensity
fluorescence retained in fixed cells (confocal, phalloidin) [4]: showed green fluorescence
phagocytosis in situ [5]: phagocytosed by both microglia and astrocytes in situ
fluorescence in retinal astrocytes (quantification) ([6]; 3 time points, FIG. 11G): No fluorescence was detected
phagocytosis by GFAP+ retinal astrocytes in vivo ([6]; FIG. 11F): phagocytose Aβ^pH in vivo
green fluorescence in live (ZV-) cells (flow cytometry) ([7]; 0.5, 1.0, and 2.0 μM for 1 hour): green fluorescence is measured
phagocytosis ex vivo (confocal, LysoTracker Red) ([7]; defined, reduced-serum media, fixed cells): phagocytose Aβ^pH ex vivo
green fluorescence in live (PI-) cells (flow cytometry) [8]: green fluorescence is measured
phagocytosis by astrocytes [9]: also phagocytose Aβ^pH
intracellular fluorescence during the 18-hour time period ([10]; 5.0 μM dose): increased intracellular fluorescence
intracellular fluorescence (phagocytosis) over time ([10]; 1.0 and 2.0 μM doses): gradual increase in intracellular fluorescence
phagocytosis ([11]; 5.0 μM): increased phagocytosis
time period of increased intracellular fluorescence ([11]; 1.0 and 2.0 μM doses, followed by gradual decrease): 1 to 8 h
co-localization with LysoTracker dye [12]: confirmed the presence of hAβ^pH within the acidic phagosomes
phagocytic uptake at the 24 h timepoint ([13]; P7 mouse, periventricular white matter, 24 h): phagocytic uptake of Aβ^pH by IBA1^+ microglia and GFAP^+ astrocytes
fluorescence in GFAP+ astrocytes at 72 h [13, 15]: do not show any green fluorescence
fluorescence in IBA1+ microglia at 72 h [13, 15]: bright green fluorescence
fluorescence within microglia vs astrocytes ([13]; pia and white matter regions): more Aβ^pH uptake by microglia compared to astrocytes
fluorescence in cell somata after topical application ([14]; mouse barrel cortex, two-photon imaging): fluorescence increases in cell somata
colocalization with IBA1, CD68, and GFAP ([14]; perfusion-fixed 1.5 to 3 hours after imaging, cortical slices): most Aβ^pH is taken up by microglia and astrocytes in vivo

RODO-conjugated hAβ^pH: conjugate of the Aβ1-42 peptide with pHrodo-Red (RODO) fluorophore
pH range of increased fluorescence ([3]; 0.5, 1.0, 2.0, and 5.0 μM, FIG. 1C): 1.0-7.0
